Assay results taken from patent US12638438B2, “Screening methods using canine T2R receptors and pet food products and compositions identified using the same” (MARS, INCORPORATED, priority 2015, dated 2026).
One block for each compound: values may come before it.

Tests used:
[1] = biological target: T1, canine T2R3 (Canis lupus, UniProt Q2ABD8); assay: Canine T2R3 activation, intracellular calcium assay in transiently transfected HEK293 cells, dose response (FIG. 5E); type: cell-based; conditions: agonist; HEK293 transient, cT2R3 (SEQ ID NO:19); calcium fluorescence or luminescence, FLIPR Tetra; at least 8 concentrations in triplicate
T1 sequence (Q2ABD8 1-316): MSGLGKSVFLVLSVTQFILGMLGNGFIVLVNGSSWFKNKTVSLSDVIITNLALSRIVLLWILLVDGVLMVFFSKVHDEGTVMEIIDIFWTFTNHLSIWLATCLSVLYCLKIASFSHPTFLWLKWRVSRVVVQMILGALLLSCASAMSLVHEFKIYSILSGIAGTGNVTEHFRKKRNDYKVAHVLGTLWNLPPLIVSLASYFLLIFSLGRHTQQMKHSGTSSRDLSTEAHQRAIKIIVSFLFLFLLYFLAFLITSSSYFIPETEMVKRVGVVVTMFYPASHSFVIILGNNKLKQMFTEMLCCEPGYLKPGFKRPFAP
Text: Residues that can make hydrogen bonding or charged interactions with the ligand include Asn93 and Asp86. […] Additional residues making primarily van der Waals interactions with the ligand include Phe250, Gly185, Phe243, Thr90, Asn176, Val149, Ile154, Lys174, Met82, Ile85, Lys173, and Met69.
(§1) No wash step was required for the luminescent protocol.

[2] = biological target: T2, canine T2R5 (Canis lupus, UniProt Q2ABD6); assay: Canine T2R5 activation, intracellular calcium assay in transiently transfected HEK293 cells, dose response (FIG. 7E); type: cell-based
T2 sequence (Q2ABD6 1-295): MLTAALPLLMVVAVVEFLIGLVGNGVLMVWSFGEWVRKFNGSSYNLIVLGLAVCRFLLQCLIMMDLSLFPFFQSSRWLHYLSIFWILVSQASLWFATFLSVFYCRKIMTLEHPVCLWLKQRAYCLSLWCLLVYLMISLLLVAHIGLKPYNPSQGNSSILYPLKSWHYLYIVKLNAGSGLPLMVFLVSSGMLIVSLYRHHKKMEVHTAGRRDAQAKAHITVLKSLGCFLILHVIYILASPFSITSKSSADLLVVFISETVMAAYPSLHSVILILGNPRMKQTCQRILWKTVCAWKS
Text: There is a potential hydrogen bond between Ser89 and each nitrogen of 1, 10 Phenanthroline. Additional residues that can potentially make van der Waals or Pi interactions with the ligand include Pro264, Leu58, Val88, Gln90, Ile86, Leu173, Trp165, Thr258, Ala261, Tyr234, Glu257, Met260, and Trp85.
as §1

[3] = biological target: canine T2R43 (Canis lupus, UniProt A0A8I3S925); assay: cell-based
Sequence of canine T2R43 (A0A8I3S925 1-349): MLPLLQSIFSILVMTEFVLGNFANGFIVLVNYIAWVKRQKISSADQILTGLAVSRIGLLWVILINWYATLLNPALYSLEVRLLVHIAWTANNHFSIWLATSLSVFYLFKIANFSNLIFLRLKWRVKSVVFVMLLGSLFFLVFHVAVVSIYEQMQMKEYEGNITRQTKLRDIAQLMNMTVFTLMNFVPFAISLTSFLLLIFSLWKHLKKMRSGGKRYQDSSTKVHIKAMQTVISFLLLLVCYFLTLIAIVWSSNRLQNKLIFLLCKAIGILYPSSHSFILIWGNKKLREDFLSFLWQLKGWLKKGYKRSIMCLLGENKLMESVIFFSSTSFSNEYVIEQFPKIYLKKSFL
Method: In vitro functional characterization of the selected modulators was used to evaluate the effectiveness of the putative modulator compounds in modulating the activation of the bitter taste receptors.
HEK293 cells that transiently expressed a canine bitter taste receptor selected from canine T2R1, T2R2, T2R3, T2R4, T2R5, T2R10, and T2R43, were exposed to compounds to determine whether the compounds modulated the activity of the bitter taste receptors.
All transient transfections were performed with Lipofectamine2000 (Invitrogen) according to the manufactures protocol. 10 μl Lipofectamine2000 were diluted in 500 μl DMEM (Life Technologies) and incubated for 5 minutes at room temperature. […] At 27 to 30 hours post-transfection the medium was removed from the cells and 20 μl loading buffer that included a calcium sensitive fluorescent dye or luminescent substrate (Tyrode's buffer+2 μM Fluo4-AM (Invitrogen)+2.5 mM probenecid (Invitrogen) for fluorescence or Coelenterazine (Biosynth)+Tyrode's buffer for luminescence) were added for 1 hour (fluorescence) or 3 hours (luminescence) at 37° C. […]
Activation of the bitter taste receptor was determined by detecting a change in intracellular calcium levels as measured by fluorescence or luminescence of the calcium sensitive fluorescent dye or luminescent photoprotein. […] A FLIPR® Tetra system was used to measure fluorescence or luminescence. […]

[4] = biological target: T3, canine T2R1 (Canis lupus, UniProt Q2ABE0); assay: Canine T2R1 activation, intracellular calcium assay in transiently transfected HEK293 cells, dose response (FIG. 3E); type: cell-based
T3 sequence (Q2ABE0 1-297): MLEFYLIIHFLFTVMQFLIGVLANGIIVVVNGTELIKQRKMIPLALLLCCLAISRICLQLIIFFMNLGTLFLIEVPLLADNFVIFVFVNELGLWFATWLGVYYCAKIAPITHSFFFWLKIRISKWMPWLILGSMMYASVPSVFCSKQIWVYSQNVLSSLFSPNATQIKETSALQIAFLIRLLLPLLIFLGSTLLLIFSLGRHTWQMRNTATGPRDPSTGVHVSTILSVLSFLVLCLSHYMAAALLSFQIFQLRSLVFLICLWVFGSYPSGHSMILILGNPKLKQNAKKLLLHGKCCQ
Text: FIGS. 2A-2C show canine T2R sequence alignments. The dashed grey arrows indicate active site positions occupied by mostly asparagine or serine residues. The solid black arrows indicate structural tryptophan residues that are present in all human and cat bitter receptors as well as all canine bitter receptors except T2R12. The dashed black arrows indicate the conserved asparagine which is present in most of the bitter receptors. The conjoined solid arrows indicate the conserved LxxxR motif (IxxxR for some instances in T2R2), wherein x can be any amino acid. […] Asn89 can potentially make a hydrogen bond interaction with the ligand. Other residues that can potentially make hydrogen bonding interactions, pi interactions, or charged interactions with the ligand include Tyr239.
as §1

[5] = biological target: T4, canine T2R10 (Canis lupus, UniProt Q2ABD4); assay: Canine T2R10 activation, intracellular calcium assay in transiently transfected HEK293 cells, dose response (FIG. 8E); type: cell-based; conditions: agonist; HEK293 transient, cT2R10 (SEQ ID NO:23); calcium fluorescence or luminescence, FLIPR Tetra; at least 8 concentrations in triplicate
T4 sequence (Q2ABD4 1-322): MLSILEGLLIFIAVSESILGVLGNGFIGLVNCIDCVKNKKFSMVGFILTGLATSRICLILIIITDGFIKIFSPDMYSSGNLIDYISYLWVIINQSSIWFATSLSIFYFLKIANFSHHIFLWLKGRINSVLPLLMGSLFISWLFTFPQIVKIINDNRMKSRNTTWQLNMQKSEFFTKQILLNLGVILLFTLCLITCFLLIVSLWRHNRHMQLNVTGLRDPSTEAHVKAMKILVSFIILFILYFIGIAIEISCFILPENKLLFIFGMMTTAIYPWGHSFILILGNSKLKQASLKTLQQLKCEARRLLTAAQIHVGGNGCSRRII
Text: Lys258 and Leu180 (backbone) can potentially make hydrogen bonds with the ligand.
as §1

[6] = biological target: T5, canine T2R2 (Canis lupus, UniProt Q2ABD9); assay: Canine T2R2 activation, intracellular calcium assay in transiently transfected HEK293 cells, dose response (FIG. 4E); type: cell-based; conditions: agonist; HEK293 transient, cT2R2 (SEQ ID NO:18); calcium fluorescence or luminescence, FLIPR Tetra; at least 8 concentrations in triplicate
T5 sequence (Q2ABD9 1-303): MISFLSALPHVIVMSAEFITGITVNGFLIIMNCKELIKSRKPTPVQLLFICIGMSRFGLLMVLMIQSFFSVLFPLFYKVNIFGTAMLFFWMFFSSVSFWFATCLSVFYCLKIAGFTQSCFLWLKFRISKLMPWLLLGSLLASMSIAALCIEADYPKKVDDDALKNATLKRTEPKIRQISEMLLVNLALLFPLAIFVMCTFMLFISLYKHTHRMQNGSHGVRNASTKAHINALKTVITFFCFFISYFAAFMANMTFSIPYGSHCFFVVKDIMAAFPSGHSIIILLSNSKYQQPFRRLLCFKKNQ
Text: Residues that can potentially make hydrogen bond or salt bridge interactions with the ligand include Ser94, Trp90, Lys268, Tyr245, and Glu180.
as §1

Structure (SMILES): CCN(CC)CCCC(C)Nc1ccnc2cc(Cl)ccc12 (stereo not drawn) [Chloroquine]
EC50 [1]: 81 ± 11 µM

Structure (SMILES): c1cnc2c(c1)ccc1cccnc12 [1, 10 Phenanthroline, 1,10-phenanthroline]
EC50 [2]: 564 ± 114 µM

EC50 [3]: 126 ± 23 µM
Structure (SMILES): CCCc1cc(=O)[nH]c(=S)[nH]1 [Propylthiouracil]

Structure (SMILES): CC(C)[C@@H]1CC[C@@H](C)C[C@H]1O [Menthol]
EC50 [4]: 1080 ± 216 µM

Structure (SMILES): CC(=O)OC(C)(C)/C=C/C(=O)[C@](C)(O)[C@H]1[C@H](O)C[C@@]2(C)[C@@H]3CC=C4[C@@H](C[C@H](O)C(=O)C4(C)C)[C@]3(C)C(=O)C[C@]12C [Cucurbitacin B]
EC50 [5]: 0.3 ± 0.034 µM

EC50 [6]: 232 ± 14 µM
Structure (SMILES): CC1COc2c(N3CCN(C)CC3)c(F)cc3c(=O)c(C(=O)O)cn1c23 (stereo not drawn) [Ofloxacin]
